pIC50: −log10 of the molar value.
Key:
myocardial ischemia = experiment: Artificially induced acute coronary insufficiency in an awake dog (ST-segment elevation); assay type: in vivo; details: Canis lupus familiaris, 0.1 h, intravenous, 6 min coronary occlusion, groups of ten animals, read-out: DE20 (dose producing a mean reduction of at least 20% of the ST-segment elevation)
From the text: Because of the reduction in the oxygen supply which results from this, the occlusion produces myocardial ischemia which is expressed on the electrocardiogram by a reproducible and quantifiable ST-segment elevation. The anti-ischemic action of a compound results in a reduction of the magnitude of the ST-segment elevation. (P. R. MAROKO and E. BRAUNWALD, Circulation, 53, (1976, Suppl. I), 162-168; S. E. EPSTEIN et al., Circulation, 53, (1976, Suppl. I), 191-197).

α2 -adrenergic receptors = target: T1, α2 -adrenergic receptors (Rattus norvegicus, UniProt P22909); experiment: Competitive binding assay with [^3 H]clonidine on rat brain membranes; details: 30 minutes incubation, read-out: IC50 (50% inhibition of the binding of [^3 H]clonidine)
T1 construct: three different preparations of rat brain membranes; from tissue; host or cells: rat brain membranes
T1 sequence (P22909 1-465): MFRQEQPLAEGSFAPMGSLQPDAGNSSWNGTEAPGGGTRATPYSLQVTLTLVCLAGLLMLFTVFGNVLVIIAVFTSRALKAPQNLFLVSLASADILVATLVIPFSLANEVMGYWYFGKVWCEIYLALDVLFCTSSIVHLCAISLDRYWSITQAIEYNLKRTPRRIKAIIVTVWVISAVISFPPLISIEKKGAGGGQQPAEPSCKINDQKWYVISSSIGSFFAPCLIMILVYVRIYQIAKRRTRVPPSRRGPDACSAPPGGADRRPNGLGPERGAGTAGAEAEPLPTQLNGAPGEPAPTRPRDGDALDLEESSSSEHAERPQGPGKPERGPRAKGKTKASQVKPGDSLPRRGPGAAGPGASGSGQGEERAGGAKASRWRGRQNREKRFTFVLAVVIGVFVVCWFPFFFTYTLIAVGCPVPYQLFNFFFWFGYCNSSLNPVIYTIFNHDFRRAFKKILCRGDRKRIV
From the text: (a) Competitive binding assay with a radioligand. The object of competitive binding assays is to measure the affinity of the compounds of the invention for α2 -adrenoceptors. These conventional experiments involve the competition for binding to α2 -adrenergic receptors between the tested compound on the one hand, and on the other hand, a radioligand which, in this particular case of α2 -adrenergic receptors, is the [^3 H]clonidine which is known to be a specific α2 -adrenergic agonist.
The method used is that of D. C. U'PRICHARD et al., Mol. Pharmacol. 13, (1977), 454-473.
The displacement curves for binding of [^3 H]clonidine have been determined with nine concentrations of compound A, ranging from 10^-4 to 10^-10 mole/l, and with three different preparations of rat brain membranes. The samples were incubated for 30 minutes, and then filtered under reduced pressure using a Whatman GF/B filter. The filters are washed three times with 5 ml of Tris-HCl buffer (pH 7.5 at 0° C.) and then dried for one minute. The radioactivity is measured in an Econofluor (-NEN Corp.) medium. The [^3 H]clonidine (25.5 Ci/mmole) used is provided by Amersham.
The affinity of compound A for the α2 -adrenergic receptors has been calculated from the displacement curves of the [^3 H]clonidine. […]

**Q.** How did the ED20 (myocardial ischemia) turn out when Cl.NC(=O)c1cccc(Cc2c[nH]cn2)c1O [A, 2-hydroxyl-3-[(1H-imidazol-4-yl)methyl]-benzamide hydrochloride] was run?
**A.** 0.03 µmol/kg

**Q.** And the pIC50 (α2 -adrenergic receptors)?
**A.** 8.05
